How the values were obtained:
[1] = Stability in simulated gastric fluid (SGF); type: in vitro ADME; conditions: 10 μM, SGF pH 1.2, over 1 h
Description: (§1) Samples (100 μl) were drawn at 0, 15, 30 and 60 min from SGF reaction-vials and at 0, 30, 60 and 120 min from SIF reaction-vials, quenched with acetonitrile, vortex-mixed, and centrifuged before supernatant analysis by LC-MS/MS analysis. […] For PK studies, a sparse sampling design with 3 mice per time point was used to collect blood samples at 5, 10, 15, 30 min and 1, 2, 3, 4, 5 and 6 h in K2EDTA-coated tubes. The pharmacokinetic parameters (AUClast, Cmax, CL and Vss) were calculated using non-compartmental analysis tool of Phoenix WinNonlin software (version 6.3).
(§2) Given the extreme pH and various digestive enzymes, the GI tract presents a harsh environment to any ingested xenobiotic. Thus, many potential drug candidates are degraded in the GI tract, explaining their decreased bioavailability or inability to reach the target at effective concentrations. Simulated gastric fluid (SGF; pH 1.2) and simulated intestinal fluid (SIF; pH 6.8) closely mimic the GI tract environment and are amenable in vitro systems to evaluate degradation of a compound in GI tract (US Pharmacopoia).
(§3) Simulated gastric fluid was prepared as per U.S. Pharmacopeia (USP) methods. Sodium chloride (2 g) and pepsin (3.2 g, from porcine stomach mucosa) were dissolved in 7.0 ml hydrochloric acid and Milli-Q water to make up the volume to 1000 ml and the pH was adjusted to 1.2. […]

[2] = Stability in simulated intestinal fluid (SIF); type: in vitro ADME; conditions: 10 μM, SIF pH 6.8, over time (to 120 min)
Description: as §1, §2, §3

[3] = Pharmacokinetic studies, single oral and intravenous dose; type: in vivo, BALB/c mice
Description: as §1
Nine animals per group were used for PK studies. A sparse sampling design was used to collect blood samples from animals at 5 min, 10 min, 15 min, 30 min, 1, 2, 3, 4, 5, and 6 h in K2EDTA coated tubes. Plasma was collected from blood by centrifugation of samples at 8000 g for 10 min. Plasma samples were stored below −60° C. until further analysis.
PK parameters were calculated from the concentration-time data using the non-compartmental analysis tool of Phoenix WinNolin® software (version 6.3, Pharsight, St Louis, Mo.). The area under the concentration time curve (AUClast) was calculated by the linear trapezoidal rule. Following oral administration, peak concentration (Cmax) and time for the peak concentration (Tmax) were the observed values. The clearance (CL) and volume of distribution (Vss) were estimated following IV dose administration. The elimination rate constant value (k) was obtained by linear regression of the log-linear terminal phase of the concentration-time profile using at least three declining concentrations in terminal phase with a correlation coefficient of >0.8. The terminal half-life value (T1/2) was calculated using the equation ln 2/k. Oral bioavailability was calculated by taking the ratio of dose normalized AUClast following oral administration to IV administration.

[4] = Acute toxicity, single oral limit dose; type: in vivo, Sprague-Dawley (SD) rats; conditions: single oral dose of 5 g/kg, five male and five female rats, monitored one week
RWPE-1 = assay: MTT cell proliferation assay, normal prostate cells; type: cell-based; conditions: 0.5 mg/ml Etn, 48 h
Description: After 48 h, drug containing medium was replaced by medium containing MTT (tetrazolium bromide) at a concentration of 0.5 mg/ml. The yellow tetrazolium salt is reduced to insoluble purple formazan by viable cells. After 4 h of incubation in dark, formazan crystals produced by viable cells were dissolved by 200 μl DMSO and the amount of formazan crystals formed was quantified by recording the absorbance at 570 nm using multi-well plate reader. […] After 10 days, colonies were fixed with 4% formaldehyde, stained with crystal violet and counted.

Ki67 = assay: Immunohistochemical staining of PC-3-luc xenografts; type: in vivo, mice; conditions: Etn-treated tumors (40 mg/kg)
Description: OCR was measured using an oxygen electrode.
While ˜62% cells were Ki67-positive in untreated control tumors, Ki67 positivity was reduced to ˜40% in Etn-treated tumors (FIG. 14, panel Dii).
Tumors were formalin-fixed, paraffin-embedded and 5 μm thick prostate tumor sections were stained for Ki67 and c-PARP, and prostate cancer TMA (US Biomax, Derwood, Mass.) was immunostained for choline kinase. All stained slides were examined by a pathologist in a blinded-manner.

plasma proteins = assay: Binding to proteins in plasma (ultrafiltration); type: in vitro ADME; conditions: pH 7.4, 37° C., 30 min
Description: Plasma from human, dog, rat and mouse were thawed and incubated at 37° C. The pH of the plasma was adjusted to 7.4 using dilute hydrochloric acid. A 5 μL aliquot of ethanolamine (2 mM) was spiked into 995 μL of plasma and incubated at 37° C. for 30 min in CO2 incubator. One mL aliquots of plasma were transferred to ultrafiltration tubes for analysis. All ultrafiltration tubes were centrifuged at 1000 g for 20 min. Samples from top and bottom chamber of ultrafiltration tube were collected. Equal volume of blank plasma and ultrafiltrate were mixed to ultrafiltrate and plasma to make the matrix same. Samples were processed by using acetonitrile containing internal standard and subjected to LC/MS/MS analysis.

HCT116 = HCT116 colon tumor xenograft; conditions: 40 mg/kg Etn oral, 2 weeks
PC-3-luc = PC-3-luc prostate tumor xenograft
CYP2C19 = CYP2C19 (Homo sapiens, UniProt P33261); assay: CYP inhibition in human liver microsomes
PC-3-luc tumors = assay: Glucose and glutamine contents in tumors (LC-MS/MS); conditions: 40 mg/kg Etn-treated tumors vs untreated control
[5] = 40 mg/kg Etn pH 5 (phosphoric acid), oral gavage, 4 weeks

Chain of CYP2C19 (P33261 whole entry): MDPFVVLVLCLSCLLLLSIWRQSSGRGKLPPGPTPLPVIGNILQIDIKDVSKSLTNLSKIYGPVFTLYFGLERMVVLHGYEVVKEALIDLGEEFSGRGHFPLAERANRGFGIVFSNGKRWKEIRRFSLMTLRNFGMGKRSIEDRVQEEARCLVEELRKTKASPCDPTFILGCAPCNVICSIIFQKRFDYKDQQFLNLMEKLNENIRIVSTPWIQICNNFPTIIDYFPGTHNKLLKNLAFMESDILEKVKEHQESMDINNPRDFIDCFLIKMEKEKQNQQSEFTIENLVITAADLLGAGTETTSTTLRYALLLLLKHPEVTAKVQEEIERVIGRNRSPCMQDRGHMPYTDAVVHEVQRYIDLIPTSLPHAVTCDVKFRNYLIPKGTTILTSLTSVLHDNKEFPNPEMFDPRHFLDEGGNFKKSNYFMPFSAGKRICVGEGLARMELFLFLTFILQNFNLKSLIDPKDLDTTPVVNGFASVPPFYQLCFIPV

For NCCO [Etn, monoethanolamine], the “stability in SGF” value [1] was “stable”, the “stability in SIF” value [2] was “remained unchanged” and the “AUClast of Etn compared to PhosE” value ([3]; oral 40 mg/kg Etn) was 13 fold. For the same molecule, the “Cmax of Etn compared to PhosE” value ([3]; oral 40 mg/kg Etn) was 32 fold, the “time to reach peak plasma concentration” value ([3]; oral Etn administration, analyte Etn) was 10 min and the acute toxicity [4] was “all rats were alive and did not display any sign of distress or toxicity”. The reduction of survival (RWPE-1) was “remained unaffected”, the Ki67 positivity (Ki67) was roughly 40% and the percent bound (plasma proteins; dog plasma) was “less than 85%”. The percent bound (plasma proteins; human plasma) was “less than 85%”, the percent bound (plasma proteins; mouse plasma) was “less than 85%” and the percent bound (plasma proteins; rat plasma) was “less than 85%”. For the same molecule, the body weight (HCT116) was “did not change significantly”, the body weight (PC-3-luc; 40 mg/kg Etn oral, over the course of treatment, both models) was “no apparent changes in body weight” and the “reduction in tumor volume vs untreated control tumors” value (PC-3-luc; [5]) was roughly 67%. For the same molecule, the “reduction in tumor weight vs untreated control tumors” value (PC-3-luc; [5]) was roughly 55%, the IC50 (CYP2C19) was greater than 100 µM and the “glucose and glutamine contents” value (PC-3-luc tumors) was “significantly reduced”.

Source: US11607421B2, “Ethanolamine-based lipid biosynthetic compounds, method of making and use thereof” (Metanoi Therapeutics, Inc., priority 2016, dated 2023)
